According to patent US10513521B2, “Compositions and methods for inhibiting BMP” (The Brigham and Women's Hospital, Inc., priority 2014, dated 2019):
pIC50: −log10 of the molar value. Where “and” joins values, the source holds several entries; their conditions need not be identical. Identical values can stand only once.

Legend:
ALK1 = ALK1 (Homo sapiens, UniProt P37023); experiment: TR-FRET enzymatic ALK kinase assay, ALK1
Procedure: (§1) Briefly, the ALKs enzymatic assay was initiated by dispense 2.5 μl enzyme in 1× kinase reaction buffer. The assay plate was then added with compounds followed by incubation at room temperature for 10 minutes. Then 2.5 μl/well substrate was added.

ALK5 = target: T1, ALK5 (Homo sapiens, UniProt P36897); experiment: TR-FRET enzymatic ALK kinase assay, ALK5
T1 sequence (P36897 34-503): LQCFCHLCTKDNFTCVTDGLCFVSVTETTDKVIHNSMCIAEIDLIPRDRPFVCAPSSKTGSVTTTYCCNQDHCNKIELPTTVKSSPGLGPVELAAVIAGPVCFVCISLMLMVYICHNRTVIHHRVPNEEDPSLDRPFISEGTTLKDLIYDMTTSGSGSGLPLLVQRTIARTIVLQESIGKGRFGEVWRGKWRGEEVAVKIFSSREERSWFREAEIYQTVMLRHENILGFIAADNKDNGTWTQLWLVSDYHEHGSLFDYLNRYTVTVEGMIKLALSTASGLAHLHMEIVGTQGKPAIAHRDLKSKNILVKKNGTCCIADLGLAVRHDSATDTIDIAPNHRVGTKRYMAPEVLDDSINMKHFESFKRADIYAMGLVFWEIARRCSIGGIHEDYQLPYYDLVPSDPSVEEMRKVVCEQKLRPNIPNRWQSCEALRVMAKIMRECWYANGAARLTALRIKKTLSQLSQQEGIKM
Procedure: Six ALK kinase enzyme assays were developed for determination of compound activities on ALK1, ALK2, ALK3, ALK4, ALK5 and ALK6.
as §1

ALK2 [1] = target: T2, ALK2 (Mus musculus, UniProt P37172); experiment: In-cell Western ALK2 assay (C2C12 cells, BMP6 as agonist); format: cell-based; conditions: read-out: BMP6 ICW
T2 construct: The C2C12 cell line was selected for the measurement of ALK2 activity using BMP6 as the agonist; host or cells: C2C12
T2 sequence (P37172 21-509): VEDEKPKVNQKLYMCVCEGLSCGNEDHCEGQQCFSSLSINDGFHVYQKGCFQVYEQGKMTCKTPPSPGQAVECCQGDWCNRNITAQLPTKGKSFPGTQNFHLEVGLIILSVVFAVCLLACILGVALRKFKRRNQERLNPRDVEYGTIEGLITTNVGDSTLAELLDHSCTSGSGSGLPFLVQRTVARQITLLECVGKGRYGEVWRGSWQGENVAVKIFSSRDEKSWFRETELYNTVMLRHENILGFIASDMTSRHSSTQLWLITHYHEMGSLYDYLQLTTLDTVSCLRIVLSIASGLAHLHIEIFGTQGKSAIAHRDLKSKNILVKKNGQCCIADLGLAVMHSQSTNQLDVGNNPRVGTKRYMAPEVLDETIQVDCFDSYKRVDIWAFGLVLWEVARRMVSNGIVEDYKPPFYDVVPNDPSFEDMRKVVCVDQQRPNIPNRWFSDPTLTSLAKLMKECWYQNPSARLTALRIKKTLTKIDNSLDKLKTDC
From the text: 3. In-Cell Western ALK1 and ALK2 Assays in 384-Well Plate Format.
We also optimized cell-based In-cell Western assays for measurements of ALK1 and ALK2 activities that were used to determine compound activities in these two kinases. The cell lines and agonists used were same as described in above cell-based HTRF ALK1 and ALK2 assays. The initial cell plating and compound treatment were also same. The main difference is the detection of phosphorylation status of SMAD1. In t-cell Western assay, the cells were fixed and phosphorylation status of SMAD1 was detected by the ELISA instead of using the HTRF assay kit in above assay.
HyClone Fetal Bovine Serum was obtained from GE healthcare life sciences (Logan, Utah). BMP6 and BMP9 were purchased from R&D System (R&D). Anti-P-SMAD 1/5/8 rabbit mAb and anti-rabbit IgG, HRP-Linked antibody were purchased from Cell Signaling Technology (Danvers, Mass.). BioFX Chemiluminescent Ultra-Sensitive HRP Microwell Substrate ECL Reagent was obtained from SurModics (Edina, Minn.). The compound plates and the white solid MB assay plates were from Greiner Bio-one (Monroe, N.C.).
Similarly as described in above HTRF cell-based assay, this assay was performed in 384 well plate format. […] Pre-starved cells were then plated in 384 well plate in the starvation medium (containing in 0.1% FBS). After 4 hours, compound dilutions in DMSO were added to the assay plate and incubated for 30 minutes. The assay plate was then added with BMP6 for C2C12 cells or BMP9 for BAOEC cells and incubated for 30 minutes.
The cells were washed in the plate washer with PBS and blocked with 2% BSA in PBS for 1 h at room temperature on the rotator. After removing the blocking reagent, the cells were incubated with the anti-p-SMAD1 antibody in 2% BSA in PBS for overnight at 4° C. on rotator. The cells were washed with PBS in the plate washer and incubated with HRP conjugated second antibody in 2% BSA in PBS for 1 hour at room temperature. After a cell wash with PBS, ECL detection reagent was added and the plate was read in the luminesce mode in the ViewLux plate reader.

ALK2 [2] = target: T2, ALK2; experiment: HTRF pSMAD1 cell-based ALK2 assay (C2C12 cells, BMP6 as agonist)
In short: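 Cells pre-starved, plated in 0.1% FBS medium for 4 h, compound added for 30 min, then stimulated 30 min with BMP9 (BAOEC) or BMP6 (C2C12). Phospho-SMAD1 measured by HTRF after overnight room-temperature detection incubation.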

[3] = cell-based assay, BMP6, read-out: Cell IC50 BMP6
[4] = HTRF assay, BMP6 as agonist, C2C12 cells, read-out: BMP6 HTRF

Sequence of ALK1 (P37023 22-503): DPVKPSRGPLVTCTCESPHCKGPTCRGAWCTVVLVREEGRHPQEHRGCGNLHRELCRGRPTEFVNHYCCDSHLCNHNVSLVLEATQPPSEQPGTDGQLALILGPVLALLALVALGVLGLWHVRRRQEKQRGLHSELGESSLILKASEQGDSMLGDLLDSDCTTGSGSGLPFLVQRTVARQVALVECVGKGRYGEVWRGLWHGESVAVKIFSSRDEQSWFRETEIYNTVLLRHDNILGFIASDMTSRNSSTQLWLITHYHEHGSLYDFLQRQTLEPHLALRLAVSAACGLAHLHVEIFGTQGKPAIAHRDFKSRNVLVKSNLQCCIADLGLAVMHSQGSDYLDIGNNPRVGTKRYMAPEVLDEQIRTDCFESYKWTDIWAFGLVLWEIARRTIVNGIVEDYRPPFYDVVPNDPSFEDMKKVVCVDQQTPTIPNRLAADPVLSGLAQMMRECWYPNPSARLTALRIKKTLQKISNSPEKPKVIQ

SMILES	pIC50 (ALK1)	pIC50 (ALK5)	pIC50 (ALK2 [1])	pIC50 (ALK2 [2]; [3])	pIC50 (ALK2 [2]; [4])
CC(C)S(=O)(=O)c1cccc(-c2cnn3cc(-c4ccc(CCN5CCCCC5)cc4)cnc23)c1 [Compound 113, 3-(3-(isopropylsulfonyl)phenyl)-6-(4-(2-(piperidin-1-yl)ethyl)phenyl)pyrazolo[1,5-a]pyrimidine]	6.30	< 5.00	6.44 and 6.66	8.34	–
CS(=O)(=O)c1cccc(-c2cnn3cc(-c4ccc(OCCN5CCCC5)cc4)cnc23)c1 [Compound 108, 3-(3-(methylsulfonyl)phenyl)-6-(4-(2-(pyrrolidin-1-yl)ethoxy)phenyl)pyrazolo[1,5-a]pyrimidine]	6.41	< 5.00	–	6.73	–
C[S+](=O)([O-])c1cccc(-c2cnn3cc(-c4ccc(OCCN5CCCCC5)cc4)cnc23)c1 [Compound 109]	6.41	< 5.00	6.72 and 6.52	8.70	–
N/C(=N/O)c1ccc(-c2cnn3cc(-c4ccc(N5CCNCC5)cc4)cnc23)c2ccccc12 [Compound 15, N′-hydroxy-4-(6-(4-(piperazin-1-yl)phenyl)pyrazolo[1,5-a]pyrimidin-3-yl)-1-naphthimidamide]	5.83	4.76	–	6.77	–
CC(C)S(=O)(=O)c1cccc(-c2cnn3cc(-c4ccc(N5[C@H](C)CNC[C@@H]5C)cc4)cnc23)c1 [Compound 114, 6-(4-((2R,6S)-2,6-dimethylpiperazin-1-yl)phenyl)-3-(3-(isopropylsulfonyl)phenyl)pyrazolo[1,5-a]pyrimidine]	7.17	< 5.00	6.96 and 7.06	> 9.00	–
CS(=O)(=O)c1cccc(-c2cnn3cc(-c4ccc(CN5CCCCC5)cc4)cnc23)c1 [Compound 123, 3-(3-(methylsulfonyl)phenyl)-6-(4-(piperidin-1-ylmethyl)phenyl)pyrazolo[1,5-a]pyrimidine]	6.68	< 5.00	6.52 and 7.00	8.62	6.82 and 6.89

Continued by rising pIC50 (ALK1), values first:

pIC50 (ALK1)	pIC50 (ALK5)	pIC50 (ALK2 [1])	pIC50 (ALK2 [2]; [3])	pIC50 (ALK2 [2]; [4])	SMILES
6.42	< 5.00	6.62 and 6.52 and 6.77 and 6.80	6.80	–	NS(=O)(=O)c1ccc(-c2cnn3cc(-c4ccc(CCN5CCCCC5)cc4)cnc23)c2ccccc12 [Compound 54, 4-(6-(4-(2-(piperidin-1-yl)ethyl)phenyl)pyrazolo[1,5-a]pyrimidin-3-yl)naphthalene-1-sulfonamide]
6.48	< 5.00	7.24 and 7.25	–	6.64	CC(O)c1cccc(-c2cnn3cc(-c4ccc(OC5(CN6CCCCC6)CC5)cc4)cnc23)c1 (stereo not shown) [Compound 143, 1-(3-(6-(4-(1-(piperidin-1-ylmethyl)cyclopropoxy)phenyl)pyrazolo[1,5-a]pyrimidin-3-yl)phenyl)ethanol]
6.70	< 5.00	–	7.18	–	C[C@@H]1CNC[C@H](C)N1c1ccc(-c2cnc3c(-c4cccc(C[S+](C)(=O)[O-])c4)cnn3c2)cc1 [Compound 117, 6-(4-((2R,6S)-2,6-dimethylpiperazin-1-yl)phenyl)-3-(3-((methylsulfonyl)methyl)phenyl)pyrazolo[1,5-a]pyrimidine]
6.96	< 5.00	–	7.96	–	CC1(c2ccc(-c3cnc4c(-c5cccc(S(C)(=O)=O)c5)cnn4c3)cc2)CCNCC1 [Compound 115, 6-(4-(4-methylpiperidin-4-yl)phenyl)-3-(3-(methylsulfonyl)phenyl)pyrazolo[1,5-a]pyrimidine]
7.24	< 5.00	–	7.46	–	CC(O)c1cccc(-c2cnn3cc(-c4ccc(N5[C@H](C)CNC[C@@H]5C)cc4)cnc23)c1 (stereo partly drawn) [Compound 83, 1-(3-(6-(4-((2R,6S)-2,6-dimethylpiperazin-1-yl)phenyl)pyrazolo[5-a]pyrimidin-3-yl)phenyl)ethanol]
7.80	4.87	–	7.96	–	CC(C)(CN1CCCCC1)Oc1ccc(-c2cnc3c(-c4cccc5c(C(N)=O)cccc45)cnn3c2)cc1 [Compound 18, 5-(6-(4-((2-methyl-1-(piperidin-1-yl)propan-2-yl)oxy)phenyl)pyrazolo[1,5-a]pyrimidin-3-yl)-1-naphthamide]
